According to paper PMC8802628, “Selective activation of PFKL suppresses the phagocytic oxidative burst” (Cell, 2021):

Columns and labels:
PMNs = assay: Phagocytosis of zymosan particles by PMNs; format: cell-based, human; conditions: neutrophils, zymosan 2 h
Protocol: Figure S7. NA-11 activates PFKL to prevent the oxidative burst and impair neutrophil defenses, related to Figures 4 and 6
(A) PFK1 activity in PMN lysates. Cells were pretreated with 0.5 mM NA-11, 5 mM LDC7559, 100 mM apocynin, 200 mM thionicotinamid e (TN), 1 mM MEK inhibitor U0126, or DMSO vehicle for 30 min, or 1 mM proteasome inhibitor bortezomib for 1 h, and then activated with 50 nM PMA for 30 min where indicated. Bars represent the mean ± s.d. of cells from 3 donors. (B) NADH:NAD+ ratio in PMA-activated PMNs. Cells were pretreated with 0.5 mM NA-11 or DMSO vehicle for 30 min, and then activated with 50 nM PMA for 30 min. Data are the mean ± s.d. of cells from 3 donors. (C) Immunolabeling of citrullinated histone H3 (magenta) and myeloperoxidase (red) in PMNs pretreated with 0.5 mM NA-11 or DMSO vehicle for 30 min and then stimulated for 4 h with 50 nM PMA, 10 mg/mL extracellular LPS, 0.5 mg/mL cholesterol crystals, or 25 mM nigericin. Chromatin is stained green. Scale bar, […]. Results are representative of 3 independent experiments.
(D) Fluorescence micrographs of PMNs pretreated with 0.5 mM NA-11, 200 mM thionicotinamide (TN), 0.5 mM NA-4, or DMSO vehicle for 30 min, and then incubated with serum-opsonized Texas Red-conjugated zymosan particles (10 mg/mL) for 2 h. […]

[1] = biological target: T1, 14-3-3 protein beta/alpha (YWHAB) (Homo sapiens, UniProt P31946); assay: Photoaffinity labeling pull-down (Data S1); format: binding; conditions: Comparison PALP1_NA11-PALP1
T1 construct: endogenous in cells; host or cells: human blood leukocytes, labelled live
Protocol: Buffy coats (100 mL) were diluted with ice-cold water (540 mL) for 30 s to lyse red blood cells. Following addition of 10 x HBSS buffer (50 mL) leukocytes were pelleted for 3 min at 300 x g, then washed twice in D-PBS and resuspended in RPMI medium. Cells (2 × 10^7) were plated on 15-cm dishes in DMSO vehicle, 1 μM PALP1 or 1 μM PALP6 for 30 min at 37°C. For competition, 10 μM NA-11 was added for 15 min, and then 1 μM PALP1 was added for an additional 30 min. To crosslink the photoaffinity probe, cells were UV-irradiated (High intensity mercury spot lamp, 100W, 365 nm, UVP) in RPMI for 5 min on ice. Cells were lysed in 200 μL 10 mM Tris pH 7.5, 150 mM NaCl, 1% NP-40, 2.5 mM MgCl2, 0.5 mM CaCl2, 2% glycerol, 10 μg/mL DNase-I, and 1 x EDTA-free Protease inhibitor cocktail. Lysates from 5 plates for each condition were pooled and incubate 10 min on ice.
Biotin-DADPS tagging, biotin-streptavidin affinity purification, and on-bead digestion were performed as described ([Hewings et al., 2018]). Briefly, lysates were cleared by centrifugation and the lysate concentration adjusted to 5 mg/mL. Streptavidin Ultralink Resin (100 μL of 50% slurry, Pierce) was washed twice with PBS and mixed with 1 mL of lysate for 30 min at room temperature. […]
For the classical TPP, quantitative data from each temperature were used to generate a thermal titration curve and calculate a melting point. […]

T1 sequence (P31946 whole entry): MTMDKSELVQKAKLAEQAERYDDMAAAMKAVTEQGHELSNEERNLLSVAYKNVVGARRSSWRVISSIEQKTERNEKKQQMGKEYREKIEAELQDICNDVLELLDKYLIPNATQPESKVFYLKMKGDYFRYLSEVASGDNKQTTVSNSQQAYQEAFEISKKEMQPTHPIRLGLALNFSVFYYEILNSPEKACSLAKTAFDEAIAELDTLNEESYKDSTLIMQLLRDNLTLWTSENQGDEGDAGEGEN

`CC(=O)Nc1ccc2c(c1)OCc1cc(-c3ccccc3C#CCCCO)nn1C2` [NA-11] was tested. Which “phagocytosis (intracellular zymosan particles)” value (PMNs) did it give?
Its value is “neither NA-11 nor TN affected phagocytosis”.

What about the log2FC [1] of the same molecule?
Its log2FC is 0.13.
